# Legend:
# Assay type in all cases: cell-based
# estrogen receptor ERα = molecular target: T1, estrogen receptor ERα (Homo sapiens, UniProt P03372); test: Human ERα/β reporter assay panel (ERE-luc), ERα; conditions: 1 μg/mL, 24 hours; FIG. 6
# T1 construct: host or cells: reporter cells included in the purchased panel
# T1 sequence (P03372 1-595): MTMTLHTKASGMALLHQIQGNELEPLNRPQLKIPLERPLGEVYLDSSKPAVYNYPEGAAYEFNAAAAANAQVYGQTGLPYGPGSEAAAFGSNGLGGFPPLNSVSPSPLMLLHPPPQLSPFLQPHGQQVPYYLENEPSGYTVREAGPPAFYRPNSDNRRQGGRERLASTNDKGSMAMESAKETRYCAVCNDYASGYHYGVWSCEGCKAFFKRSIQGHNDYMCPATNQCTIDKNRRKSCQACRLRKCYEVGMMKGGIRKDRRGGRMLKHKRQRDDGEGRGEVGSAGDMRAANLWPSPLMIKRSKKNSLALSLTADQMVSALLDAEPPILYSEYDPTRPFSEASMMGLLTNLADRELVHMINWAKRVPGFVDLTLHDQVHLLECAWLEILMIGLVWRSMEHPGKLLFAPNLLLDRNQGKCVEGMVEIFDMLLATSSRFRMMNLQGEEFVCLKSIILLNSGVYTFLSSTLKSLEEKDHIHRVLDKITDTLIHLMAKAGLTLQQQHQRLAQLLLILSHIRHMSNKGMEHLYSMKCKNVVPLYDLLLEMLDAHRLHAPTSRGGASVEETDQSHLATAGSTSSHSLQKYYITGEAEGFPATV
# Experimental: (§1) For evaluation of the effect of activating estrogen receptors alpha and beta (ERα/β) of the notified green tea extract, the high-temperature-processed green tea extract and theanine depending on the weight ratio of GCG:EGCG, a human ERα/β reporter assay panel (IB00421-48P, Indigo Bioscience) was treated with 20 μg/mL sample 1 (notified green tea extract), 20 μg/mL sample 2 (high-temperature-processed green tea extract), 20 μg/mL sample 3, or 20 μg/mL sample 4 of Preparation Example 1 or 2, or 1 μg/mL theanine of Preparation Example 3, for 24 hours and then the increased activity of the estrogen receptors ERα and ERβ was analyzed.
# (§2) Specifically, ERα and ERβ are overexpressed and the ERE-luc reporter gene is included in the cells included in the human ERα/β reporter assay panel. If the activity of the estrogen receptors is increased upon treatment with the test substance, ERα and ERβ are bound to ERE and the expression of luciferase is induced. Therefore, the activity of ERα and ERβ can be determined by measuring light emission from the cells.
# estrogen receptor ERβ = molecular target: T2, estrogen receptor ERβ (Homo sapiens, UniProt Q92731); test: Human ERα/β reporter assay panel (ERE-luc), ERβ; conditions: 1 μg/mL, 24 hours; FIG. 6
# T2 construct: host or cells: reporter cells included in the purchased panel
# T2 sequence (Q92731 whole entry): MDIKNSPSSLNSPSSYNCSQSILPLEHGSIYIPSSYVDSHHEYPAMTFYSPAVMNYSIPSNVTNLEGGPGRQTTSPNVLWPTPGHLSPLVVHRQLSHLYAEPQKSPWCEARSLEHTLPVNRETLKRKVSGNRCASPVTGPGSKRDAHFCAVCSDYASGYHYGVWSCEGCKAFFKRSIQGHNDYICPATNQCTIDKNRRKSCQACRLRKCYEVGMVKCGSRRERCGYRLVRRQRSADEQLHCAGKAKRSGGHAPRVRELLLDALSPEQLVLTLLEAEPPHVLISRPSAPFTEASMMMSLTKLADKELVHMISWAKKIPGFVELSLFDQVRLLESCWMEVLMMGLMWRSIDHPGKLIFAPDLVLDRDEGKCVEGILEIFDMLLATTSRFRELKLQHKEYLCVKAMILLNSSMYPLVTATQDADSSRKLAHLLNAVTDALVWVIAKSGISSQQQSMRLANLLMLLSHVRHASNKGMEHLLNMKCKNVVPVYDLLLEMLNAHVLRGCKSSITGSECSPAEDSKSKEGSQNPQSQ
# Experimental: as §1, §2
# [1] = system: MCF-7 cells (breast cancer cells); test: MCF-7 breast cancer cell growth (cell counting); conditions: 100 pM, 48 hours; FIG. 7
SMILES,activity of estrogen receptor ERα (luciferase activity) (estrogen receptor ERα),activity of estrogen receptor ERβ (luciferase activity) (estrogen receptor ERβ),growth of MCF-7 cells (number of cells) [1]
"CCNC(=O)CC[C@H](N)C(=O)O [theanine, L-theanine]",no receptor-activating effect,no receptor-activating effect,–
C[C@]12CC[C@@H]3c4ccc(O)cc4CC[C@H]3[C@@H]1CC[C@@H]2O [17b-estradiol],–,–,promoted significantly
